{"source": "patent US20100040598A1", "about": "“KIT OF PARTS COMPRISING AN ACID LABILE AND AN ACID RESISTANT PHARMACEUTICALLY ACTIVE INGREDIENT” (priority 2006, published 2010)", "key": {"[1]": {"conditions": "co-administered e.g. with sodium bicarbonate; compared to fasting; cited from earlier work"}, "[2]": {"test": "Influence of food intake on absorption of clavulanic acid and amoxicillin (plasma pharmacokinetics after test tablet, Comparative Example A)", "type": "in vivo, human", "conditions": "for AUC(0-inf) / Cmax / Tmax: human, plasma, oral, one test tablet", "method": "An exploratory study involving 9 healthy volunteers receive the test product under fasted and fed conditions. The test product is AUGMENTIN™ XR as commercially available by Glaxosmithkline, and is an extended release tablet containing 1000 mg amoxicillin and 62.5 mg clavulanic acid wherein said tablet consists of a fast release layer comprising 562.5 mg as amoxicillin trihydrate and 62.5 mg clavulanic acid as clavulanate potassium salt, and of an extended release layer containing 437.5 mg amoxicillin as amoxicillin sodium salt. The test tablets are magnetically marked as described in Comparative Example B. The volunteers receive one test tablet together with 240 ml of non-carbonated water under the following conditions:\na) under fasting conditions: on one study day after a fasting period of at least 8 hours, b) at the beginning of a meal: on another study day after the first bite of a high […] standardized breakfast A, and c) under fed conditions: on still another study day 30 minutes after a high fat standardized breakfast B.\nThe standardized breakfast A consists of 2 slices of bread, 40 g cheese, 150 ml orange juice, 150 ml milk, and 20 g of cereals. The standardized breakfast B consists of 2 eggs fried in butter, 2 strips of bacon, 2 slices of toast with butter, 120 ml of hash brown potatoes and 240 ml of whole milk (3.5% fat).\n(§1) Blood samples are taken before and 0.5, 1, 1.5, 2, 2.5, 3, 3.5, 4, 4.5, 5, 5.5, 6, 6.5, 7, 7.5, 8, 8.5, 9, 9.5, 10 and 12 hours after ingestion of the test tablet. Blood samples are centrifuged and stored at −80° C. Concentrations of both amoxicillin and clavulanic acid are determined according to known methods using a LC-MS/MS procedure (HPLC coupled Online with MS). Pharmacokinetic parameters are expressed as Cmax (maximal plasma concentration), AUC0→∞ (area under the plasma concentration-time curve extrapolated to infinity) and tmax (time of peak plasma concentration). Cmax and tmax as figuring in Tables 1 and 2 are determined from the 9 single values directly taken from the plasma-concentration-time curve. AUC0→tlast is calculated as follows: AUC0→∞=AUC0→tlast+AUCtlast→∞ wherein AUC0→tlast is the area under the plasma concentration-time curve from time of administration until time of last quantifiable concentration measured, i.e. Ct, and is calculated by using the linear trapezoid rule. AUCtlast→∞ is the extrapolated area to infinity that equals to Ct/Kel wherein Kel is the elimination rate constant. The results are reported using descriptive statistics.\nTables 1 and 2 show the pharmacokinetic parameters of clavulanic acid and amoxicillin, respectively, determined in human plasma from the blood samples taken after administration of one test tablet under fasting or fed conditions or at the beginning of a meal (values are mean values of 9 volunteers)."}, "[3]": {"test": "Crossover bioavailability study of tablet B before and tablet A after food intake vs both after food intake (Example 3)", "type": "in vivo, human", "conditions": "data not shown", "method": "In this study 20 subjects are randomized in balanced manner into 2 sequences. The subjects in the sequence 1 obtain tablet B under fasting conditions and then tablet A 30 minutes after beginning of food intake whereas the subjects in the second sequence are dosed with both tablets (A and B) 30 minutes after beginning of food intake. The extended release tablet A contains 1125 mg amoxicillin whereas tablet B is an immediate release formulation comprising 875 mg as amoxicillin trihydrate and 125 mg clavulanic acid as clavulanate potassium salt. The volunteers receive […] of non-carbonated water to each tablet administered.\nThe standardized breakfast (before or between the dosing) consists of 2 eggs fried in butter, 2 strips of bacon, 2 slices of toast with butter, 120 ml of hash brown potatoes and 240 ml of whole milk (3.5% fat).\nas §1, with “plasma concentration) and” for “plasma concentration),”, “infinity) which” for “infinity) and tmax (time of peak plasma concentration). Cmax and tmax as figuring in Tables 1 and 2”, “determined analogously as described above in comparative example A. Cmax is” for “determined from the 9 single values”, “curve. AUC0→∞” for “curve. AUC0→tlast”, “constant.” for “constant. The results are reported using descriptive statistics.”"}, "[4]": {"test": "More extensive study involving 70 volunteers with conventional test tablet without magnetic markers", "type": "in vivo, human", "conditions": "test tablet at the beginning of a meal, data not shown", "method": "If a conventional combination of an acid labile active ingredient such as clavulanic acid and of an acid resistant active ingredient such as amoxicillin is administered according to a conventional scheme, namely both active ingredients simultaneously, concomitant food intake seems to strongly influence the plasma concentrations and thus bioavailability of the 2 active ingredients. This has been observed in the herein described exploratory study for a conventional combination in the form of a bilayer tablet comprising clavulanic acid for immediate release and amoxicillin for both immediate and extended release such as the herein described test tablet."}}, "note": "Read-outs that look alike come from different tables or passages of the source."}
{"smiles": "COc1ccc2[nH]c([S+]([O-])Cc3ncc(C)c(OC)c3C)nc2c1", "note": "(stereo not shown) [omeprazole]", "values": [{"measurement": "Bioavailability, effect of food ingestion", "setting": "[1]", "value": "reduces bioavailability"}]}
{"smiles": "CC1(C)S[C@@H]2[C@H](NC(=O)[C@H](N)c3ccc(O)cc3)C(=O)N2[C@H]1C(=O)O", "note": "[amoxicillin]", "values": [{"measurement": "AUC of amoxicillin", "setting": "[2]; at the beginning of a meal compared with fasting and fed state", "value": "lies in between that observed for the fasting and for the fed state"}, {"measurement": "AUC of amoxicillin", "setting": "[2]; fasting conditions compared with fed conditions", "value": "significantly reduced"}, {"measurement": "Plasma concentrations of amoxicillin (FIG. 2): absorption", "setting": "[2]; fed conditions compared with fasting conditions", "value": "delayed absorption"}, {"measurement": "tmax of amoxicillin", "setting": "[2]; fed conditions compared with fasting or beginning of a meal", "value": "significantly delayed"}, {"measurement": "AUC(0-inf)", "setting": "[2]; amoxicillin in human plasma, at the beginning of a meal, read-out: AUC0→∞, mean value ± s (converted)", "value": 40900, "unit": "ng·h/mL"}, {"measurement": "AUC(0-inf)", "setting": "[2]; amoxicillin in human plasma, at the beginning of a meal, read-out: AUC0→∞, median (converted)", "value": 39100, "unit": "ng·h/mL"}, {"measurement": "Cmax", "setting": "[2]; amoxicillin in human plasma, at the beginning of a meal, read-out: Cmax, mean value ± s", "value": "10400 ± 2000", "unit": "ng/mL"}, {"measurement": "Cmax", "setting": "[2]; amoxicillin in human plasma, at the beginning of a meal, read-out: Cmax, median", "value": 9870, "unit": "ng/mL"}, {"measurement": "Tmax", "setting": "[2]; amoxicillin in human plasma, at the beginning of a meal, read-out: tmax, mean value ± s (converted)", "value": "~1.38", "unit": "h"}, {"measurement": "Tmax", "setting": "[2]; amoxicillin in human plasma, at the beginning of a meal, read-out: tmax, median (converted)", "value": 1, "unit": "h"}, {"measurement": "AUC(0-inf)", "setting": "[2]; amoxicillin in human plasma, fasting conditions, 9 volunteers, read-out: AUC0→∞, mean value ± s (converted)", "value": 30900, "unit": "ng·h/mL"}, {"measurement": "AUC(0-inf)", "setting": "[2]; amoxicillin in human plasma, fasting conditions, read-out: AUC0→∞, median (converted)", "value": 29000, "unit": "ng·h/mL"}, {"measurement": "Cmax", "setting": "[2]; amoxicillin in human plasma, fasting conditions, read-out: Cmax, mean value ± s", "value": "10300 ± 1200", "unit": "ng/mL"}, {"measurement": "Cmax", "setting": "[2]; amoxicillin in human plasma, fasting conditions, read-out: Cmax, median", "value": 10300, "unit": "ng/mL"}, {"measurement": "Tmax", "setting": "[2]; amoxicillin in human plasma, fasting conditions, read-out: tmax, mean value ± s (converted)", "value": "~1.5", "unit": "h"}, {"measurement": "Tmax", "setting": "[2]; amoxicillin in human plasma, fasting conditions, read-out: tmax, median (converted)", "value": 1.5, "unit": "h"}, {"measurement": "AUC(0-inf)", "setting": "[2]; amoxicillin in human plasma, fed conditions (30 minutes after high fat breakfast), read-out: AUC0→∞, mean value ± s (converted)", "value": 43400, "unit": "ng·h/mL"}, {"measurement": "AUC(0-inf)", "setting": "[2]; amoxicillin in human plasma, fed conditions, read-out: AUC0→∞, median (converted)", "value": 42100, "unit": "ng·h/mL"}, {"measurement": "Cmax", "setting": "[2]; amoxicillin in human plasma, fed conditions, read-out: Cmax, mean value ± s", "value": "9880 ± 2300", "unit": "ng/mL"}, {"measurement": "Cmax", "setting": "[2]; amoxicillin in human plasma, fed conditions, read-out: Cmax, median", "value": 9830, "unit": "ng/mL"}, {"measurement": "Tmax", "setting": "[2]; amoxicillin in human plasma, fed conditions, read-out: tmax, mean value ± s (converted)", "value": 2.28, "unit": "h"}, {"measurement": "Tmax", "setting": "[2]; amoxicillin in human plasma, fed conditions, read-out: tmax, median (converted)", "value": 1.5, "unit": "h"}, {"measurement": "Maximum plasma concentrations Cmax of amoxicillin", "setting": "[2]; test tablet after food intake compared with fasting", "value": "slightly lower"}, {"measurement": "Initial maximum plasma concentrations Cmax of amoxicillin", "setting": "[3]; condition a) vs condition b)", "value": "higher initial maximum plasma concentrations"}, {"measurement": "Plasma level of amoxicillin (duration)", "setting": "[3]; condition a) vs condition b)", "value": "slightly prolonged"}]}
{"smiles": "O=C(O)[C@H]1/C(=C/CO)O[C@@H]2CC(=O)N21", "note": "[clavulanic acid]", "values": [{"measurement": "Cmax and AUC of clavulanic acid", "setting": "[2]; fed state compared with fasting conditions", "value": "significantly reduced"}, {"measurement": "AUC(0-inf)", "setting": "[2]; clavulanic acid in human plasma, at the beginning of a meal, read-out: AUC0→∞, mean value ± s (converted)", "value": 3280, "unit": "ng·h/mL"}, {"measurement": "AUC(0-inf)", "setting": "[2]; clavulanic acid in human plasma, at the beginning of a meal, read-out: AUC0→∞, median (converted)", "value": 2880, "unit": "ng·h/mL"}, {"measurement": "Cmax", "setting": "[2]; clavulanic acid in human plasma, at the beginning of a meal, read-out: Cmax, mean value ± s", "value": "1390 ± 400", "unit": "ng/mL"}, {"measurement": "Cmax", "setting": "[2]; clavulanic acid in human plasma, at the beginning of a meal, read-out: Cmax, median", "value": 1240, "unit": "ng/mL"}, {"measurement": "Tmax", "setting": "[2]; clavulanic acid in human plasma, at the beginning of a meal, read-out: tmax, mean value ± s (converted)", "value": 1.38, "unit": "h"}, {"measurement": "Tmax", "setting": "[2]; clavulanic acid in human plasma, at the beginning of a meal, read-out: tmax, median (converted)", "value": 1.5, "unit": "h"}, {"measurement": "AUC(0-inf)", "setting": "[2]; clavulanic acid in human plasma, fasting conditions, 9 volunteers, read-out: AUC0→∞, mean value ± s (converted)", "value": 3300, "unit": "ng·h/mL"}, {"measurement": "Cmax", "setting": "[2]; clavulanic acid in human plasma, fasting conditions, 9 volunteers, read-out: Cmax, mean value ± s", "value": "1400 ± 400", "unit": "ng/mL"}, {"measurement": "Tmax", "setting": "[2]; clavulanic acid in human plasma, fasting conditions, 9 volunteers, read-out: tmax, mean value ± s (converted)", "value": "~1.5", "unit": "h"}, {"measurement": "AUC(0-inf)", "setting": "[2]; clavulanic acid in human plasma, fasting conditions, read-out: AUC0→∞, median (converted)", "value": 3020, "unit": "ng·h/mL"}, {"measurement": "Cmax", "setting": "[2]; clavulanic acid in human plasma, fasting conditions, read-out: Cmax, median", "value": 1350, "unit": "ng/mL"}, {"measurement": "Tmax", "setting": "[2]; clavulanic acid in human plasma, fasting conditions, read-out: tmax, median (converted)", "value": 1.5, "unit": "h"}, {"measurement": "AUC(0-inf)", "setting": "[2]; clavulanic acid in human plasma, fed conditions (30 minutes after high fat breakfast), read-out: AUC0→∞, mean value ± s (converted)", "value": 2200, "unit": "ng·h/mL"}, {"measurement": "AUC(0-inf)", "setting": "[2]; clavulanic acid in human plasma, fed conditions, read-out: AUC0→∞, median (converted)", "value": 2080, "unit": "ng·h/mL"}, {"measurement": "Cmax", "setting": "[2]; clavulanic acid in human plasma, fed conditions, read-out: Cmax, mean value ± s", "value": "970 ± 600", "unit": "ng/mL"}, {"measurement": "Cmax", "setting": "[2]; clavulanic acid in human plasma, fed conditions, read-out: Cmax, median", "value": 830, "unit": "ng/mL"}, {"measurement": "Tmax", "setting": "[2]; clavulanic acid in human plasma, fed conditions, read-out: tmax, mean value ± s (converted)", "value": 2.07, "unit": "h"}, {"measurement": "Tmax", "setting": "[2]; clavulanic acid in human plasma, fed conditions, read-out: tmax, median (converted)", "value": 2, "unit": "h"}, {"measurement": "Plasma concentrations of clavulanic acid (FIG. 1)", "setting": "[2]; test tablet taken after a meal (breakfast B) compared with fasting", "value": "significantly reduced"}, {"measurement": "Plasma concentrations of clavulanic acid", "setting": "[3]; condition a) tablet B fasting, tablet A 30 minutes after beginning of food intake, vs b) both tablets 30 minutes after beginning of food intake", "value": "significantly higher"}, {"measurement": "Cmax and AUC0→∞ of clavulanic acid", "setting": "[3]; condition a) vs condition b)", "value": "significantly higher"}, {"measurement": "Bioavailability of clavulanic acid", "setting": "[4]", "value": "slightly decreased"}]}
